Laboratory results: patent US6455270B1, “Method for inhibiting eukaryotic protein kinases” (TerraGen Discovery Inc., priority 1997, dated 2002)

Experiments:
Streptomyces 85E = assay: Inhibition of sporulation in Streptomyces 85E (filter paper disc on freshly seeded plate); assay type: cell-based, Streptomyces WEC478-85E; conditions: for zone of inhibition at 10 µg/disc: Streptomyces, 85E, 10 ug compound applied to disc; for Growth of the vegetative mycelia: disc assay, 10 ug
Excerpt: adding the material to be tested for kinase inhibitory activity to a growing culture of a prokaryotic organism such as a streptomycete;
allowing the culture to grow for a period of time in the presence of the material; and
observing the culture for altered development relative to development of the prokaryotic organism grown in the absence of the material. Observation of altered development is indicative that the material has activity as an inhibitor of post-translational protein phosphorylation. In particular, the material to be tested can be added to a growing culture of the prokaryotic organism by placing a carrier disk bearing the material on a freshly seeded plate. Inhibition of the development of aerial mycelia and spore formation is an indicator that the material has activity as an inhibitor of post-translational protein phosphorylation.
We have used a wild strain of Streptomyces isolated from soil and designated Streptomyces WEC478-85E (hereinafter strain 85E) to test lichen extracts. Strain 85E has been deposited with the American Type, Culture Collection in accordance with the provisions of the Budapest treaty and has been assigned Accession Number ATCC 55824.
In the test assay, the lichen-extract to be tested was applied to a filter paper disk and then placed on a plate which has been freshly seeded with the strain 85E test organism. The test organism is then allowed to grow in the presence of the filter paper disk for a period of 24 to 36 hours, after which the organism is evaluated for altered development in the zone around the disk. An observation of an inhibition of the formation of aerial mycelia and spores, without inhibition of the growth of vegetative mycelia is particularly indicative of the presence of an inhibitor of post-translational phosphorylation.

Human c-Src kinase = Human c-Src kinase (Homo sapiens, UniProt P12931); assay: Human c-Src kinase inhibition (PTK reaction); assay type: biochemical; conditions: 0.2 unit c-Src
Procedure: (§1) I. Human c-Src kinase incubated 30 min. at 30° C. with 5 ug usnic acid or-vulpinic acid: II. Human c-Src incubated 5 min. at 30° C. with 5 ug usnic acid or 5 ug vulpinic acid: 5 ug in the 50 ul PTK reaction mixture represents a concentration of about 300 uM for both of these compounds and twice that in the 25 ul PKC reactions. Thus, inhibition was detected for this particular protein tyrosine kinase and only minimally inhibitory for protein kinase C. Other protein kinases may show greater or lesser levels of inhibition.

Protein Kinase C = Protein Kinase C inhibition (PKC reaction); assay type: biochemical; conditions: 10 ng PKC, incubated 30 min. at 30° C. with 5 ug compound (about 600 uM in 25 ul)
Procedure: as §1, with “III. Protein Kinase C” for “I. Human c-Src kinase”, “30” for “30 min. at 30° C. with 5 ug usnic acid or-vulpinic acid: II. Human c-Src incubated 5”

Chain of Human c-Src kinase (P12931 whole entry): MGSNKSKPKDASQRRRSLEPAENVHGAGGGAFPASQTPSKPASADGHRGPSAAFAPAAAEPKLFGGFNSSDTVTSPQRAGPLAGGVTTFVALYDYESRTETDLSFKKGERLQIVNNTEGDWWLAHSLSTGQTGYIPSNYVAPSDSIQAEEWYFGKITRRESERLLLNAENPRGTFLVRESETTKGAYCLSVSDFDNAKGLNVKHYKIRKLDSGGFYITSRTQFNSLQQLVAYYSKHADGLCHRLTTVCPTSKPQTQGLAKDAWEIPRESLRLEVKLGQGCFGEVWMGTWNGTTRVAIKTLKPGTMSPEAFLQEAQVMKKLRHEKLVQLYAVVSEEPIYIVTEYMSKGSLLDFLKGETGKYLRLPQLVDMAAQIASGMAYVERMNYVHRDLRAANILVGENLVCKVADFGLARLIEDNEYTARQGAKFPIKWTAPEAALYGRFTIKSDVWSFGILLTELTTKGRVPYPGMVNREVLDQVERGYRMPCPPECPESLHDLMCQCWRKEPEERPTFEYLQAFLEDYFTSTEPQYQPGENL

SMILES | zone of inhibition at 10 µg/disc (Streptomyces 85E) [mm] | Growth of the vegetative mycelia (Streptomyces 85E) | c-Src kinase reaction reading (control reaction 0.208) (Human c-Src kinase; incubated 5 min. at 30° C. with 5 ug compound (about 300 uM in 50 ul)) | c-Src kinase reaction reading (control reaction 0.562) (Human c-Src kinase; incubated 30 min. at 30° C. with 5 ug compound (about 300 uM in 50 ul)) | Protein Kinase C reaction reading (control reaction 0.289) (Protein Kinase C)
CC(=O)c1c(O)c(C)c(O)c2c1OC1=CC(=O)C(C(C)=O)C(=O)C12C (stereo not shown) [usnic acid] | 15 | not inhibited | – | – | –
COC(=O)/C(=C1/OC(=O)C(c2ccccc2)=C1O)c1ccccc1 [vulpinic acid] | 15 | not inhibited | 0.180 | 0.483 | 0.230
